According to patent US8546447B2, “Treatment of acne using derivatives of 5-aminolevulinic acid” (Photocure ASA, priority 2004, dated 2013):

Legend:
P. acnes [1] = experiment: Intracellular porphyrin formation in P. acnes (fluorescence emission); type: cell-based, Propionibacterium acnes; conditions: four hours incubation at 37° C. in the dark, various concentrations
Protocol: To study the intracellular porphyrin formation after incubation with the ALA esters, bacteria (5×10^8 cells per ml, 10 ml) were incubated with ALA esters at 37° C. in the dark for four hours. The formation of porphyrins was followed by studying the fluorescence emission spectra (the porphyrins display characteristic peaks). The procedure was as follows:
To assess the amount of endogenously retained porhyrins, 8 ml of the 5-ALA ester incubated bacteria were added to plastic test-tubes and incubated at 2-3° C. in the refrigerator to halt further 5-ALA ester uptake and/or porhyrin formation. Then the cells from were pelleted by centrifugation (5000 g, 5 rain, 2-3° C.), the supernatant discarded and the cells resuspended in fresh buffer (8 ml) and mixed well. Aliquots of 2 ml bacterial suspension were transferred to standard disposable plastic cuvettes, and fluorescence emission spectra of the cell suspensions were determined in a Perkin Elmer LS 50B fluorescence spectrometer using the following settings:
Excitation wavelength, λx: 405 nm
Emission wavelength, λe: 550-700 nm
Excitation and emission slits: 5 nm
Emission monochromator speed: 300 nm/min
The fairly broad range of wavelengths measured was motivated by the need to have a control of the autofluorescence from the bacteria, which is most easily discernable at the lower or higher wavelengths.

[2] = tested on: Propionibacterium acnes (P. acnes); experiment: Dark toxicity of ALA esters in P. acnes (survival assay, colony forming ability); type: cell-based; conditions: for dark toxicity (FIG. 2): Example 1, concentrations up to 20 mM, 4 hours in the dark; for % CFU (mean normalised colony-forming units): 4 hours in the dark at 37° C.
Protocol: (§1) Propionibacterium acnes (P. acnes) was obtained from American Type Culture Collection (ATCC No. 6919), and bacteria were grown anaerobically in the dark on blood-agar plates at 37° C.
(§2) PIPES buffer (ca. 1 ml) was added to each blood-agar petri-plate and with the help of a sterile glass-rod and a Pasteur pipette, the bacteria solution was transferred to a 20 ml test-tube. The suspension was then diluted with PIPES buffer until the optical density (OD) was 1.00±0.01 at 550 nm as measured by a spectrophotometer.
(§3) A bacteria sample (100 μl of the suspension containing approx. 5×10^8 bacteria per ml) was collected and used as a t=0 control. Aliquots of the bacteria suspension were mixed with suitable volumes of the stock solutions of 5-ALA esters (containing 100 mM ALA ester) to obtain the appropriate concentrations and incubated for 4 hours at 37° C. in the dark. If illumination was not performed, survival was then assessed as described below.
(§4) After treatment with ALA esters (with or without illumination), the treated bacteria samples (as well as untreated controls) were collected and further diluted with PIPES buffer to 1×10^4 bacteria per ml. Aliquots of 20 ml of this suspension were then transferred to Bactoagar Petri-dishes (Futsaether et al., Can. J. Microbiol., 39(2): 180-186 1993), and incubated for 3-5 days at 37° C. in the dark. The colonies formed on the Bactoagar Petri-plates were counted using a colony counter. Cell survival after incubation with different concentrations of 5-ALA esters is given relative to the control samples (i.e. samples collected at t=0 hrs and the sample collected after 4 hrs incubation without 5-ALA ester) and given as percent survival: Survival=[Ctreated/Ccontrol]×100%
In order to find suitable conditions for studying the photodynamic effect in P. acnes after incubation with ALA esters, a study was performed to assay the toxicity of the esters. This was done in the dark to avoid any PDT effect caused by stray light.
In order to find suitable conditions for studying the photodynamic effect in P. acnes after incubation with benzyl-, 4-chlorobenzyl-, 4-nitrobenzyl-, 2-methylbenzyl-, 4-methylpentyl- and 2-methoxyethyl 5-aminolevulinate, a study was performed to assay the toxicity of these compounds. This was done in the dark, as in Example 1, to avoid any PDT effect caused by stray light.

P. acnes [3] = experiment: PDT with CureLight BroadBand lamp, P. acnes survival; type: cell-based, Propionibacterium acnes; conditions: for effectiveness to kill the bacteria (FIG. 3): 4 mM methyl ester, 4 mM benzyl ester, 1 mM hexyl ester, red light 580-740 nm
Protocol: as §1
as §2, with “spectrophotometer. At this OD the bacteria density is approximately 5×10^8 cells per ml.” for “spectrophotometer.”
as §3
In some cases, illumination was performed on the bacteria-suspensions treated with ALA esters. The exact conditions are described in the Examples below. After illumination, survival was assayed as described below.
as §4
Bacteria suspensions (P. acnes) were treated with 4 mM ALA methyl ester, 4 mM benzyl ester and 1 mM hexyl ester (due to high dark toxicity results for this ester) as described in the general section above, diluted and illuminated using a CureLight BroadBand lamp (available from PhotoCure ASA, Norway, red light of 580-740 nm and a fluence rate of ≦840 W/m^2) under temperature controlled conditions (e.g. at ambient temperature). During illumination, 2×20 μl aliquots were collected every second minute for at total of 10 minutes and assayed for survival as described in the general section above. Relative survival after illumination was calculated relative to the control sample without red light exposure.

P. acnes [4] = experiment: PDT with CureLight LED 128 (Aktilite) lamp, P. acnes survival; type: cell-based, Propionibacterium acnes; conditions: for kill / PDT effect, photodynamic inactivation (FIG. 10): 0.4 mM; for kill: 10 minutes illumination; for PDT effect, photodynamic inactivation (FIG. 10): Aktilite 128 lamp; for bacteria killed: 26 minutes of illumination (78 J/cm^2)
Protocol: as §1
as §2, with “spectrophotometer. At this OD the bacteria density is approximately 5×10^8 cells per ml.” for “spectrophotometer.”
as §3, §4
In order to compare the ALA hexyl ester and the ALA benzyl ester at the same concentration (1 mM), and also to test another light source, another experiment involving the use of a narrow-band red light (CureLight LED 128 lamp sold under the tradename Aktilite by Photocure ASA, Norway) was conducted. This lamp consists of 128 light emitting diodes (LED) and has a peak wavelength of 634±3 nm. The emission spectrum of the lamp has a full width at half maximum (FWHM) of 18 nm. The fluence rate at 50 mm distance is approx. 50 mW/cm^2 (max. fluence rate variation of the target area is ±10%).
After incubation with the ALA esters, 10 ml bacterial suspensions were irradiated in a 5.5 cm plastic petri-dish (see general section above). The petri-dishes were placed on a support lying in a large water-reservoir at ambient temperature in order to avoid temperature effects. […] After 3-5 days of incubation (at 37° C. in the dark) the survival was determined as described in the general section and given relative to the non-illuminated control sample.
Photodynamic inactivation of P. acnes after incubation with the 5-ALA esters listed in Example 9 (at 0.4 mM concentration) was studied following illumination with an Aktilite® 128 lamp.

[5] = Itoh et al. 2001; Hongcharau et al. 2000; cited from earlier work
P. avidum = experiment: Dark toxicity in P. avidum; type: cell-based, Propionibacterium avidum
Protocol: Propionibacterium avidum (P. avidum) was obtained from ATCC (ATCC No. 25577).
as §2, with “spectrophotometer. At this OD the bacteria density is approximately 5×10^8 cells per ml.” for “spectrophotometer.”
as §3
After treatment with ALA esters (with or without illumination), the treated bacteria samples (as well as untreated controls) were collected and further diluted with PIPES buffer to 1×10^4 bacteria per ml. Aliquots of 20 ml of this suspension were then transferred to Bactoagar Petri-dishes (Futsaether et al., Can. J. Microbiol., 39(2): 180-186 1993), and incubated for 3-5 days at 37° C. in the dark. The colonies formed on the Bactoagar Petri-plates were counted using a colony counter. […]

P. granulosum = experiment: Dark toxicity in P. granulosum; type: cell-based, Propionibacterium granulosum
Protocol: Propionibacterium granulosum (P. granulosum) was obtained from American Type Culture Collection (ATCC No. 25564).
as §2, with “spectrophotometer. At this OD the bacteria density is approximately 5×10^8 cells per ml.” for “spectrophotometer.”
as §3
After treatment with ALA esters (with or without illumination), the treated bacteria samples (as well as untreated controls) were collected and further diluted with PIPES buffer to 1×10^4 bacteria per ml. […] The colonies formed on the Bactoagar Petri-plates were counted using a colony counter. […]

[6] = Example 9, concentrations up to 20 mM
[7] = hexylester compared with benzylester

SMILES	inducing porphyrin formation (FIG. 5) (P. acnes [1])	dark toxicity (FIG. 2) [2]	effectiveness to kill the bacteria (FIG. 3) (P. acnes [3])	% CFU (mean normalised colony-forming units) ([2]; 0.4 mM) [%]	% CFU (mean normalised colony-forming units) ([2]; 4 mM) [%]	% CFU (mean normalised colony-forming units) ([2]; 20 mM) [%]	kill (P. acnes [4])	PDT effect, photodynamic inactivation (FIG. 10) (P. acnes [4])	other results
COC(=O)CCC(=O)CN [ALA methyl ester, methyl ALA ester]	slightly higher porphyrin levels	essentially non-toxic	least effective	–	–	–	–	–	–
NCC(=O)CCC(=O)OCc1ccc([N+](=O)[O-])cc1 [4-nitrobenzyl, 4-nitrobenzyl ALA ester]	–	–	–	63.5	61.8	53.2	~100%	most efficient	dark toxicity (in words) [2, 6]: almost no toxicity
NCC(=O)CCC(=O)O [5-ALA, 5-amino-4-oxo-pentanoic acid]	–	–	–	–	–	–	–	–	adverse effects of ALA-PDT [5]: significant adverse effects; efficacy of ALA-PDT for treatment of acne [5]: may be effective
CCCCCCOC(=O)CCC(=O)CN [ALA hexyl ester, Hexyl 5-aminolevulinate]	least effective	very toxic	quite effective	–	–	–	–	–	killed (P. avidum; 4 mM, dark): 100%; dark toxicity (FIG. 6) (P. avidum; [7]): considerably more toxic; bacteria killed (P. acnes [4]; 1 mM): 40%; killed (P. granulosum; 4 mM, dark): 100%; dark toxicity (FIG. 6) (P. granulosum; [7]): considerably more toxic
COCCOC(=O)CCC(=O)CN [2-methoxyethyl, 2-methoxyethyl 5-aminolevulinate]	–	–	–	75.5	60.8	54.0	–	weaker PDT effect	dark toxicity (in words) [2, 6]: almost no toxicity
NCC(=O)CCC(=O)OCc1ccccc1 [Benzyl, benzyl 5-aminolevulinate]	by far the most effective inducer	intermediate toxicity	most effective	78.3	62.9	15.0	approx. 50%	good abilities to kill the bacteria	light dose sufficient to obtain 100% kill (P. acnes [3]; 4 mM, CureLight BroadBand lamp): approx. 10 J/cm^2; bacteria killed (P. acnes [4]; 1 mM): killed all bacteria; photodynamic effect (FIG. 4) (P. acnes [4]; 1 mM, LED lamp 634 nm): much better photodynamic effect
CC(C)CCCOC(=O)CCC(=O)CN [4-methylpentyl, 4-methylpentyl ALA ester]	–	–	–	86.5	37.3	0.5	–	weaker PDT effect	–
Cc1ccccc1COC(=O)CCC(=O)CN [2-methylbenzyl, 2-methylbenzyl ALA ester]	–	–	–	66.0	1.2	0.0	approx. 50%	good abilities to kill the bacteria	dark toxicity (in words) ([2]; Example 9, at 4 mM): considerable toxicity
NCC(=O)CCC(=O)OCc1ccc(Cl)cc1 [4-chlorobenzyl, 4-chlorobenzyl ALA ester]	–	–	–	81.6	3.7	0.0	~100%	most efficient	dark toxicity (in words) ([2]; Example 9, at 4 mM): considerable toxicity
